Results published in ChEMBL document CHEMBL1140856, “Substituted 1,2,3,4-tetrahydroquinolin-6-yloxypropanes as beta3-adrenergic receptor agonists: design, synthesis, biological evaluation and pharmacophore modeling” (Bioorg Med Chem, 2009).
pEC50, pIC50: −log10 of the molar value.

Columns and labels:
[1] = molecular target: T1, Beta-3 adrenergic receptor (Homo sapiens, UniProt P13945); assay: Displacement of [125I]iodocyanopindolol from human adrenergic beta-3 receptor at 1 uM
Target sequence in this assay (P13945 whole entry, looked up): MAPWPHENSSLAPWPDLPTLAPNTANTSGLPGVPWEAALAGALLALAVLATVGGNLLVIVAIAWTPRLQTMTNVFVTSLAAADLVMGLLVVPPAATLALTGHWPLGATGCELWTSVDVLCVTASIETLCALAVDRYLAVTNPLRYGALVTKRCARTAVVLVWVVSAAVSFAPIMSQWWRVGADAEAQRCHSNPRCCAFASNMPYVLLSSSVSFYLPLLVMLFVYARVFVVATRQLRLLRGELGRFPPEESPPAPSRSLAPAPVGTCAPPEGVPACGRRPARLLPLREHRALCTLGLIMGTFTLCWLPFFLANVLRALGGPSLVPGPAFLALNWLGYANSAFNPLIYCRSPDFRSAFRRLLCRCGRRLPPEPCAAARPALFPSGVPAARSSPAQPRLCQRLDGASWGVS

[2] = molecular target: T1, Beta-3 adrenergic receptor; assay: Displacement of [125I]iodocyanopindolol from human adrenergic beta-3 receptor at 10 uM
Target sequence in this assay (P13945 whole entry, looked up): as above

[3] = molecular target: T1, Beta-3 adrenergic receptor; assay: Displacement of [125I]iodocyanopindolol from human adrenergic beta-3 receptor
Target sequence in this assay (P13945 whole entry): as the sequence (P13945 whole entry, looked up) above

[4] = molecular target: Beta-2 adrenergic receptor (Homo sapiens, UniProt P07550); assay: Agonist activity at adrenergic beta-2 receptor; type: functional
[5] = molecular target: Beta-1 adrenergic receptor (Homo sapiens, UniProt P08588); assay: Agonist activity at adrenergic beta-1 receptor; type: functional
[6] = Selectivity ratio of EC50 for adrenergic beta-2 receptor to EC50 for human adrenergic beta3 receptor
[7] = Selectivity ratio of EC50 for adrenergic beta-1 receptor to EC50 for human adrenergic beta-3 receptor
[8] = molecular target: T1, Beta-3 adrenergic receptor; assay: Agonist activity at adrenergic beta-3 receptor in human SK-N-MC cells; type: functional, cell-based
Target sequence in this assay (P13945 whole entry): as the sequence (P13945 whole entry, looked up) above

Beta-2 adrenergic receptor, sequence (P07550 whole entry): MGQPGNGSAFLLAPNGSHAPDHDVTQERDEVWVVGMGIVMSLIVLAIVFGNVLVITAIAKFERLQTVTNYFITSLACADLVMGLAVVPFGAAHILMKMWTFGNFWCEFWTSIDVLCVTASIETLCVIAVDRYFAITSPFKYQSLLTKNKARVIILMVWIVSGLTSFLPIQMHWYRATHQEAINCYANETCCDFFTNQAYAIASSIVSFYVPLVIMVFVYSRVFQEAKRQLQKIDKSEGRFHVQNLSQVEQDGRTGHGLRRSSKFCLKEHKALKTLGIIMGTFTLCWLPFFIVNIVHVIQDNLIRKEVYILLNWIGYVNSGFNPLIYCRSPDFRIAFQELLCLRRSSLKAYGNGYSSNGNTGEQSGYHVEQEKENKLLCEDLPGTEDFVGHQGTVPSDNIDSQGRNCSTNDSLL
Beta-1 adrenergic receptor, sequence (P08588 whole entry): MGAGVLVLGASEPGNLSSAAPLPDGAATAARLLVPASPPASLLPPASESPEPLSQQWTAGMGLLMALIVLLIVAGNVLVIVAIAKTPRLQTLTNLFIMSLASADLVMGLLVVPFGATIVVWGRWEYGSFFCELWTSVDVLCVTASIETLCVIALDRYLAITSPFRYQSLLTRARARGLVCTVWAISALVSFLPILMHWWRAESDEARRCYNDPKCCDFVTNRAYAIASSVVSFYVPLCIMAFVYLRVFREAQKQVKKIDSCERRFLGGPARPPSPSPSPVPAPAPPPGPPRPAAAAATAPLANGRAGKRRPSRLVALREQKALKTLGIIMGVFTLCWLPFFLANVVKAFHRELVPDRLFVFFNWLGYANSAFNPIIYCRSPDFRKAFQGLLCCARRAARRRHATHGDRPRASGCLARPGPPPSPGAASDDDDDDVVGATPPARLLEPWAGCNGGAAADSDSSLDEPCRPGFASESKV

| Structure (SMILES) | inhibition [1] | inhibition [2] | other results |
| --- | --- | --- | --- |
| CC(NCC(O)COc1ccc2c(c1)CCCN2Cc1ccccc1)c1ccccc1 (stereo not drawn) | 7.71% | 27.5% |  |
| OC(COc1ccc2c(c1)CCCN2Cc1ccccc1)CN1CCC(O)(c2ccccc2)CC1 (stereo not drawn) | 46.4% | 50.5% |  |
| COc1ccc(CCNCC(O)COc2ccc3c(c2)CCCN3Cc2ccccc2)cc1OC (stereo not drawn) | 72.8% | 90.6% | pIC50 [3]: 6.26 |
| OC(CNCc1ccccc1)COc1ccc2c(c1)CCCN2Cc1ccccc1 (stereo not drawn) | 1.81% | 19% |  |
| OC(COc1ccc2c(c1)CCCN2Cc1ccccc1)CN1CCCCC1 (stereo not drawn) | 4.27% | 31.4% |  |
| OC(CNCCc1ccc(Cl)cc1)COc1ccc2c(c1)CCCN2Cc1ccccc1 (stereo not drawn) | 55.8% | 63.1% |  |
| CC(Cc1ccc(O)cc1)N1CCOC(c2ccccc2)C1 (stereo not drawn) | 0.34% | 0.24% |  |
| CCN(CC)CC(O)COc1ccc2c(c1)CCCN2Cc1ccccc1 (stereo not drawn) | 9.18% | 11.2% |  |
| OC(COc1ccc2c(c1)CCCN2Cc1ccccc1)CN1CCC(Cc2ccccc2)CC1 (stereo not drawn) | -2.05% | 23.5% |  |
| COc1ccc(CCN(CC(O)COc2ccc3c(c2)CCCN3Cc2ccccc2)C(=O)OC(C)(C)C)cc1OC (stereo not drawn) | 37.8% | 46.7% |  |
| CN(Cc1ccccc1)CC(O)COc1ccc2c(c1)CCCN2Cc1ccccc1 (stereo not drawn) | -4.54% | 2.54% |  |
| Clc1ccc(CCNCCCOc2ccc3c(c2)CCCN3Cc2ccccc2)cc1 | 42.9% | 58.7% |  |
| COc1ccc(CCNCC(O)COc2ccc3c(c2)CCCN3S(=O)(=O)c2ccccc2)cc1OC (stereo not drawn) | 26.5% | 38.9% |  |
| CC(Cc1ccc(OCC(=O)O)cc1)N1CCOC(c2ccccc2)C1 (stereo not drawn) | -9.63% | 9.42% |  |
| CC1CCN(CC(O)COc2ccc3c(c2)CCCN3Cc2ccccc2)CC1 (stereo not drawn) | -1.79% | 12.8% |  |
| CCCNCC(O)COc1ccc2c(c1)CCCN2Cc1ccccc1 (stereo not drawn) | 19.2% | 66.3% |  |
| CCCCN(CCCC)CC(O)COc1ccc2c(c1)CCCN2Cc1ccccc1 (stereo not drawn) | 4.09% | 14.7% |  |
| Cc1ccc(CCNCC(O)COc2ccc3c(c2)CCCN3Cc2ccccc2)cc1 (stereo not drawn) | 8.17% | 18.1% |  |
| CCCNCCCOc1ccc2c(c1)CCCN2Cc1ccccc1 | 5.62% | 16.2% |  |
| COc1ccc(CCNCC(O)COc2ccc3c(c2)CCCN3)cc1OC (stereo not drawn) | 33.1% | 56.5% |  |
| COc1ccc(CCN(CC(O)COc2ccc3c(c2)CCCN3)C(=O)OC(C)(C)C)cc1OC (stereo not drawn) | 23.2% | 28.1% |  |
| CCOC(=O)COc1ccc(CC(C)N2CCOC(c3ccccc3)C2)cc1 (stereo not drawn) |  | -1.36% |  |
| CC(C)NCC(O)COc1ccc2c(c1)CCCN2Cc1ccccc1 (stereo not drawn) | 59.7% | 83.2% | pEC50 [4]: 5.94; pIC50 [3]: 6.23; pEC50 [5]: 5.69; Ratio EC50 [6]: 1.31; Ratio EC50 [7]: 2.3; pEC50 [8]: 6.05 |

More lines, main results first:

| inhibition [1] | inhibition [2] | Structure (SMILES) | other results |
| --- | --- | --- | --- |
| -5.28% | 18.1% | OC(COc1ccc2c(c1)CCCN2Cc1ccccc1)CN1CCN(Cc2ccc3c(c2)OCO3)CC1 (stereo not drawn) |  |
| 3.61% | 0.08% | CC1CN(c2ccc(Cl)cc2)CCN1CC(O)COc1ccc2c(c1)CCCN2Cc1ccccc1 (stereo not drawn) |  |
| 6.72% | 1.95% | COc1ccc(N2CCN(CCCOc3ccc4c(c3)CCCN4Cc3ccccc3)CC2)cc1 |  |
| 5.32% | 12.7% | OC(COc1ccc2c(c1)CCCN2Cc1ccccc1)CN1CCN(c2ccccn2)CC1 (stereo not drawn) |  |
| 49.7% | 68.8% | OC(COc1ccc2c(c1)CCCN2Cc1ccccc1)CN1CCN(c2ccc(F)cc2)CC1 (stereo not drawn) | pIC50 [3]: 5.75 |
| 45.1% | 49.8% | COc1ccc(N2CCN(CC(O)COc3ccc4c(c3)CCCN4Cc3ccccc3)CC2)cc1 (stereo not drawn) |  |
| 9.26% | 27.4% | COc1ccc(CNCC(O)COc2ccc3c(c2)CCCN3Cc2ccccc2)cc1 (stereo not drawn) |  |
| -0.84% | 17.1% | OC(COc1ccc2c(c1)CCCN2Cc1ccccc1)CN1CCN(Cc2ccccc2)CC1 (stereo not drawn) |  |
| -7.18% | 0.28% | OC(COc1ccc2c(c1)CCCN2Cc1ccccc1)CN1CCN(c2ccc(Cl)c(Cl)c2)CC1 (stereo not drawn) |  |
| 5.5% | 20.4% | OC(COc1ccc2c(c1)CCCN2Cc1ccccc1)CN1CCN(c2ccccc2F)CC1 (stereo not drawn) |  |
| 3.19% | 11.8% | Cc1ccc(N2CCN(CC(O)COc3ccc4c(c3)CCCN4Cc3ccccc3)C(C)C2)cc1 (stereo not drawn) |  |
| 56.2% | 76.5% | COc1ccc(CCNCC(O)COc2ccc3c(c2)CCCN3Cc2ccccc2)cc1 (stereo not drawn) | pEC50 [4]: 5.23; pIC50 [3]: 5.93; pEC50 [5]: 5.14; Ratio EC50 [6]: 1.2; Ratio EC50 [7]: 1.47; pEC50 [8]: 5.31 |
| 45.9% | 52.2% | OC(COc1ccc2c(c1)CCCN2Cc1ccccc1)CN1CCN(c2ccccc2)CC1 (stereo not drawn) |  |
| 6.08% | 4.13% | O=[N+]([O-])c1ccc(N2CCN(CC(O)COc3ccc4c(c3)CCCN4Cc3ccccc3)CC2)cc1 (stereo not drawn) |  |
| -2.34% | 11.3% | OC(COc1ccc2c(c1)CCCN2Cc1ccccc1)CN1CCN(c2cccc(Cl)c2)CC1 (stereo not drawn) |  |
| 12.2% | 14.5% | COc1ccccc1N1CCN(CC(O)COc2ccc3c(c2)CCCN3Cc2ccccc2)CC1 (stereo not drawn) |  |
| -3.71% | 0.18% | CN1CCN(CC(O)COc2ccc3c(c2)CCCN3Cc2ccccc2)CC1 (stereo not drawn) |  |
